Experimental data reported in patent US7062219B2, “Protein fragment complementation assays for high-throughput and high-content screening” (Odyssey Thera Inc., priority 1997, dated 2006).
Entries after “also recorded” stand apart in the source; their conditions may differ. Non-standard residues stand in square brackets, D forms with d. Residues, ends and D or L forms follow the SMILES beside them. Nle = CCCC[C@H](N)C(=O)O

What was measured:
Assay type in all cases: cell-based
[1] = system: p50/p65 complex; assay: stable HEK293T p50/p65 YFP PCA cell line, nuclear translocation (N:C ratio)
Experimental: Stable cell lines represent the gold standard for HTS since the assays can be reconstructed at any time from frozen stocks of cells. […] First, cells were co-transfected with YFP[2]-p65 encoding vectors, and stable cell lines were selected using 100 micrograms/ml of Hygromycin B (Invitrogen). Selected cell lines were then transfected with YFP[1]-p50. Stable cell lines expressing YFP[1]-p50/YFP[2]-p65 were isolated following double antibiotic selection with 50 μg/ml Hygromycin B and 500 μg/ml Zeocin. Cell clones stably expressing the fusion genes were identified by immunoblot analysis and fluorescence microscopy. A single cell line of each transfectant was selected for further characterization. Fluorescence of these lines is stable over at least 25 passages (data not shown). A stable, MEK/ERK cell line—constructed as described below—was used as a control for TNF effects. Fugene 6 (Roche) was used for all the transfections according to manufacturer's directions. Cells stably expressing YFP[1]-p50/YFP[2]-p65 were seeded at 20,000 cells/well in black-walled poly-lysine coated 96 well plate (Greiner). Twenty-four hours later, the cells were incubated with human TNF-alpha (Roche) for 30 min. Nuclei were stained with Hoechst 33342 (Molecular Probes) at 10 micrograms/ml for 10 min. Cells were rinsed with HBSS (Invitrogen) and kept in the same buffer. Fluorescence was visualized and images were acquired using a Discovery-1 automated fluorescence imager (Molecular Devices, Inc.) equipped with excitation and emission filters 470/35 and 535/60, respectively. […] For the high throughput screening campaign described below, cells were pretreated with compounds (10 micromolar) for 60 minutes and then stimulated with TNFalpha for 30 minutes in the presence of drugs. Cells were then fixed with 2% formaldehyde in HBSS and subsequently stained with Hoechst 33342. All liquid handling was done using a Biomek FX (Beckman) instrument and images were acquired as described above. Images were analyzed using Image J. Translocation is assessed by calculating the nuclear/cytoplasmic ratio of the mean fluorescence intensity for a population of cells (denoted as n) over several images for a given condition.
Genesis Plus is a collection of 960 diverse compounds, and includes compounds with known toxicity or fluorescent properties. Inclusion of compounds with such properties is important in HTS assay validation, as they might complicate analysis. The final concentration of compounds in wells was 10 micromolar, and all wells contained 0.5% DMSO concentration. […] Following fixation and staining of nuclei, fluorescence was analyzed on the automated fluorescent microscopy platform (Discovery 1; Universal Imaging/Molecular Devices Corp.). […]

[2] = system: IkBa/Ubiquitin complexes; assay: IkBa/ubiquitin YFP PCA in HEK293T cells; conditions: TNF induced HEK293T cells, ALLN versus vehicle
Experimental: IkBa-YFP[1] and YFP[2]-ubiquitin were constructed as described above and transiently expressed in HEK293T cells. […] The present invention can be applied to the large-scale identification of proteins modified by ubiquitin and ubiquitin-like polypeptides; for example, using library screening as in Example 2 of the present invention where the ‘bait’ is ubiquitin or a ubiquitin-like molecule, or by using interaction mapping as in Example 4 where ubiquitin or a ubiquitin-like molecule is tested against individual cDNAs to identify ubiquitin-protein complexes. In addition, by constructing ubiquitin PCAs for specific protein targets, the assays that are the subject of the present invention can immediately be applied to high-throughput screening for novel therapeutic agents.

[3] = system: NFkB (p65/p50) complex; assay: transient high-content YFP PCA for NFkB (p65/p50) nuclear translocation in CHO cells; conditions: 40 micrograms/ml ALLN 1 hour prior to and during TNF
Experimental: Fusion genes were subcloned into pCDNA3.1 expression vectors (Invitrogen) with a Zeocin selectable marker for YFP[1]-p50, and a hygromycin marker for YFP[2]-p65. A linker consisting of (GGGGS)2 (SEQ ID No.1) separated the genes of interest and the YFP fragments. CHO DUKXB11 cells were seeded into 96 well plates at a density of 8×10e3 cells/well and transfected 24 hours later with YFP[1] and YFP[2] fusion genes at a 1:1 molar ratio using Fugene (Boehringer Mannheim) according to manufacturer's directions. A total of 20 ng DNA per well was used for each sample. Thirty-six hours post-transfection, cells were serum starved by incubation in 0.25% FBS-supplemented aMEM for an additional 16–18 hours. For cytokine induction, certain cells were treated with 25 ng/ml mTNF (Boehringer Mannheim) for 30 min. To examine the effect of proteasome inhibition on NFkB nuclear translocation, the serum-starved cells were treated with 40 micrograms/ml ALLN (Calbiochem) for 1 hour prior to and during the mTNF alpha induction period. The cells were rinsed with PBS and the subcellular location of NFkB complexes was visualized and images acquired using a Nikon Eclipse TE2000 fluorescence microscope at excitation and emission wavelengths of 485 nm and 527 nm, respectively. Quantitative analysis of fluorescence intensities was performed using Metamorph software (Universal Imaging, Molecular Devices, Inc.)

CCCC[C@@H](C=O)NC(=O)[C@H](CC(C)C)NC(=O)[C@H](CC(C)C)NC(C)=O [ALLN] (Ac-Leu-Leu-[Nle]-aldehyde)
block of TNF-induced increases in the N:C ratio of p50/p65 complexes ([1]; ALLN treatment for 4 hr): 76%
effect on the TNF response in the stable p65/p50 PCA cell line (in words) ([1]; FIG. 12(B)): inhibition of the TNF response
mean fluorescence intensity of ubiquitin-IkBa complexes [2]: increases the accumulation; also recorded: significantly increased
effect on TNF-induced cytoplasmic-to-nuclear translocation of NFkB complexes [3]: inhibition of the TNF response; also recorded: inhibited
